From patent US20260130925A1, “METHODS FOR TREATING CANCER” (Genesis Molecular AI, Inc., priority 2022, published 2026)

Assays:
[1] = target: T1, PI3Kα H1047R in T47D cells (Homo sapiens, UniProt P42336, H1047R); assay: PI3Kα cellular assay: T47D pAKT S473 HTRF; assay type: cell-based; details: for T47D pAKT S473 HTRF IC50 (H1047R): T47D (H1047R) selectivity over SKBR3 (WT): T47D (H1047R) versus SKBR3 (WT) cells; for IC50: T47D cells (H1047R), serum starved, 1 hr compound, 20 ng/ml EGF 10 min
T1 construct: endogenous in cells; host or cells: T47D
T1 sequence (P42336 whole entry H1047R): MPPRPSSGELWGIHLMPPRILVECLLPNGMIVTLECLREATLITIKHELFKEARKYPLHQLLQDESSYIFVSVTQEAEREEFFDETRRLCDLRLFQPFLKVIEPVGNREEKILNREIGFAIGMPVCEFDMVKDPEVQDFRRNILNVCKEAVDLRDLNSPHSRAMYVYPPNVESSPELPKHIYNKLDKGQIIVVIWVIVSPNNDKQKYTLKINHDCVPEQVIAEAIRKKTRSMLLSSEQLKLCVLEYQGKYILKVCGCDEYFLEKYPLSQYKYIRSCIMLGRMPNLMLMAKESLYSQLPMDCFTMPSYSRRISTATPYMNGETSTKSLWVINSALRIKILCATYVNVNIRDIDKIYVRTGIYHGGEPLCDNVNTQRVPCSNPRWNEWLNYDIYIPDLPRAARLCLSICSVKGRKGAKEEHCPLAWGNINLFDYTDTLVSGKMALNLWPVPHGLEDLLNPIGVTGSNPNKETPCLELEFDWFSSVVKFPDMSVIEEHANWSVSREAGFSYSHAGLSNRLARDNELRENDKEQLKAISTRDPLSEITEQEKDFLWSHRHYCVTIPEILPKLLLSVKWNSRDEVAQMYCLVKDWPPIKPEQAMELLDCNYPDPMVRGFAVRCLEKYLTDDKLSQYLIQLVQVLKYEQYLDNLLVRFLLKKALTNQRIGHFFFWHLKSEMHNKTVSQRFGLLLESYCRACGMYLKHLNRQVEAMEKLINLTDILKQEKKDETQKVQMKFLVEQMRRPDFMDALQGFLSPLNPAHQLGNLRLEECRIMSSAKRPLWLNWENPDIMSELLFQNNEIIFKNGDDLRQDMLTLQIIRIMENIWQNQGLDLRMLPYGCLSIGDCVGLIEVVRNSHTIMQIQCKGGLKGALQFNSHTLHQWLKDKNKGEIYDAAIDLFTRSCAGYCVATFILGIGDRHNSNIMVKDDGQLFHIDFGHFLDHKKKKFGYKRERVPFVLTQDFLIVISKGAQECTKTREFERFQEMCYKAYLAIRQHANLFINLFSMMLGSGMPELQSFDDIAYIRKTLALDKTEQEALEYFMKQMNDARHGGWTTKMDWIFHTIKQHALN
T1 sequence (P27986 whole entry partner): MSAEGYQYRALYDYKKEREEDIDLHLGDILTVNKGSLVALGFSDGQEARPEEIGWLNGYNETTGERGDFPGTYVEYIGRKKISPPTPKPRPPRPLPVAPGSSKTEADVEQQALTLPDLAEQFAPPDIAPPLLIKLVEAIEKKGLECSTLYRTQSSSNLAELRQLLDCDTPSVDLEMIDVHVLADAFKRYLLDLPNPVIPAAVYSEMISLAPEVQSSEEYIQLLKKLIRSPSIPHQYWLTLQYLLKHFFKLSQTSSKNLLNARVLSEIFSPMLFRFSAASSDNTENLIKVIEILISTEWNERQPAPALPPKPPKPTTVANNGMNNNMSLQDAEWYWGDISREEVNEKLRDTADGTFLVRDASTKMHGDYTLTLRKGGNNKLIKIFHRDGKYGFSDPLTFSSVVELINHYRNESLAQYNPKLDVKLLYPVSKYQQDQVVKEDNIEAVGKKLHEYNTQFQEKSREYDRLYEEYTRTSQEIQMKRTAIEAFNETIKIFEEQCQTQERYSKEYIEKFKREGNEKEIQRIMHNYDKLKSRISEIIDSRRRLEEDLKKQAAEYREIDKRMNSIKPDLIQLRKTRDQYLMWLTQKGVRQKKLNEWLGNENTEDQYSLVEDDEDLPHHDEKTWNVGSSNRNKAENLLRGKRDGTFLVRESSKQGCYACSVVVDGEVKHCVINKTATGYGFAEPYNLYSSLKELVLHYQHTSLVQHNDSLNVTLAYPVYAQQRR
Procedure: PI3Kα cellular assay experimental procedure: SKBR3 or T47D cells are seeded in DMEM containing 10% FBS at 25 k cells/well into 96-well cell culture format. Cells are incubated overnight at 37° C. in a 5% CO2 incubator and the following day cell media is aspirated, adherent cells are washed 1× with room temperature PBS prior to serum-free media application. Cells are returned to 37° C. 5% CO2 incubator and incubated a further 16 hrs. Compounds are added to serum starved adherent cells with a top dose of 10,000 nM and 3× multiple dose reductions for a minimum dose of 0.5 nM diluted in DMSO. Cell/compound incubation continues for 1 hr in a 37° C., 5% CO2 incubator prior to 10 minute PIK3CA stimulation with 20 ng/ml EGF. Cells treated with 0.1% DMSO and 20 ng/mL EGF are employed as negative control, cells treated with 10 uM Alpelisib and 20 ng/mL EGF are employed as a positive control. After 10 mins, plates are removed from incubator and cells are lysed with buffer and shaking 45 minutes. 20 μL of lysate is transferred to an opti-384 plate and 2.5 μl of Phospho-AKT d2 antibody with 2.5 μl of Phospho-AKT Eu Cryptate solution in the detection buffer are added to each well. 384 well plate is left overnight at room temperature before reading HTRF on an Envision plate reader.

PI3K H1047R = PI3K H1047R (Homo sapiens, UniProt P42336, H1047R); assay: PI3K H1047R ADP-Glo (PI/PS); assay type: biochemical; parameters: PI3K H1047R ADP-Glo (PI/PS) IC50: H1047R Selectivity: reference not given here; details: for IC50: PI/PS substrate
Chain of PI3K H1047R (P42336 whole entry H1047R): as the sequence (P42336 whole entry H1047R) above
Chain of PI3K H1047R (P27986 whole entry partner): as the sequence (P27986 whole entry partner) above

Structure (SMILES) | T47D pAKT S473 HTRF IC50 (H1047R): T47D (H1047R) selectivity over SKBR3 (WT) [1] | IC50 [1] [nM] | PI3K H1047R ADP-Glo (PI/PS) IC50: H1047R Selectivity (PI3K H1047R) | IC50 (PI3K H1047R) [nM]
Cc1cc([C@@H](C)Nc2ccccc2C(=O)O)c2nc(-c3ccc(F)cc3)n(C)c(=O)c2c1 (single isomer, unassigned) [Compound 32] | A (A denotes >20-fold) | < 750 | A (A denotes >20-fold) | < 1000
Cc1cc([C@H](C)Nc2ccccc2C(=O)O)c2nc(-c3ccc4c(c3)c(C)nn4C)n(C)c(=O)c2c1 (single isomer, unassigned) [Compound 33] | A (A denotes >20-fold) | < 750 | B (B denotes 20-fold≥value>5-fold) | < 1000
Cc1cc(C(C)Nc2ccccc2C(=O)O)c2nc(-c3cc(C)c4oc(=O)[nH]c4c3)ncc2c1 (stereo not drawn) [Compound 5] | B (B denotes 20-fold≥value>5-fold) | 750 to 2000 | – | ≥ 10000
Cc1cc([C@@H](C)Nc2ccccc2C(=O)O)c2nc(N3CCC(C)(C)CC3)ncc2c1 [Compound 8] | A (A denotes >20-fold) | < 750 | B (B denotes 20-fold≥value>5-fold) | < 1000
Cc1cc(C(C)Nc2ccccc2C(=O)O)c2nc(N3CCC(C)(C)CC3)ncc2c1 (stereo not drawn) [Compound 10] | A (A denotes >20-fold) | < 750 | A (A denotes >20-fold) | < 1000
Cc1cc(C(C)Nc2ccccc2C(=O)O)c2[nH]c(N3CCOCC3)nc(=O)c2c1 (stereo not drawn) [Compound 19] | B (B denotes 20-fold≥value>5-fold) | 750 to 2000 | B (B denotes 20-fold≥value>5-fold) | 1000 to 10000
Cc1cc(C(C)Nc2ccccc2C(=O)O)c2nc(N3CCC(C)(C)CC3)nc(C#N)c2c1 (stereo not drawn) [Compound 26, 2-((1-(4-cyano-2-(4,4-dimethylpiperidin-1-yl)-6-methylquinazolin-8-yl)ethyl)amino)benzoic acid] | C (C denotes ≤5-fold) | ≥ 2000 | C (C denotes ≤5-fold) | ≥ 10000
Cc1cc(C(C)Nc2ccccc2C(=O)O)c2cc(N3CCOCC3)ncc2c1 (stereo not drawn) [Compound 37] | A (A denotes >20-fold) | < 750 | A (A denotes >20-fold) | < 1000
Cc1cc(C(C)Nc2ccccc2C(=O)O)c2nc(-c3ccc(F)cc3)n(C)c(=O)c2c1 (stereo not drawn) [Compound 38] | A (A denotes >20-fold) | < 750 | A (A denotes >20-fold) | < 1000
Cc1cc(C(C)Nc2ccccc2C(=O)O)c2nc(-c3ccc4c(c3)c(C)nn4C)n(C)c(=O)c2c1 (stereo not drawn) [Compound 40] | A (A denotes >20-fold) | < 750 | A (A denotes >20-fold) | < 1000
Cc1cc([C@@H](C)Nc2ccccc2C(=O)O)c2nc(-c3ccc4c(c3)c(C)nn4C)n(C)c(=O)c2c1 [Compound 41] | C (C denotes ≤5-fold) | ≥ 2000 | – | ≥ 10000
Cc1cc(C(C)Nc2ccccc2C(=O)O)c2cc(N3Cc4ccccc4C3)nc(O)c2c1 (stereo not drawn) [Compound 51] | A (A denotes >20-fold) | < 750 | A (A denotes >20-fold) | < 1000
Cc1cc([C@@H](C)Nc2ccccc2C(=O)O)c2cc(N3CCOCC3)ncc2c1 [Compound 57] | A (A denotes >20-fold) | < 750 | A (A denotes >20-fold) | < 1000
Cc1cc([C@H](C)Nc2ccccc2C(=O)O)c2cc(N3CCOCC3)ncc2c1 [Compound 58] | C (C denotes ≤5-fold) | ≥ 2000 | – | ≥ 10000
Cc1cc([C@H](C)Nc2ccccc2C(=O)O)c2nc(N3CCC(C)(C)CC3)nc(C#N)c2c1 [Compound 60] | C (C denotes ≤5-fold) | ≥ 2000 | – | ≥ 10000
Cc1cc(C(C)Nc2ccccc2C(=O)O)c2cc(-c3ccnc(C4CC4)c3)nc(C(N)=O)c2c1 (stereo not drawn) [Compound 73] | A (A denotes >20-fold) | < 750 | A (A denotes >20-fold) | < 1000
Cc1cc(C(C)Nc2ccccc2C(=O)O)c2nc(-c3ccc(C4CC4)nc3)n(C)c(=O)c2c1 (stereo not drawn) [Compound 136] | A (A denotes >20-fold) | < 750 | – | –
Cc1cc([C@@H](C)Nc2ccccc2C(=O)O)c2nc(-c3cccnc3)n(C)c(=O)c2c1 [Compound 137] | A (A denotes >20-fold) | < 750 | – | –
Cc1cc([C@@H](C)Nc2ccccc2C(=O)O)c2nc(-c3ccc(C#N)nc3)n(C)c(=O)c2c1 [Compound 138] | A (A denotes >20-fold) | < 750 | – | –
Cc1cc(C(C)Nc2ccccc2C(N)=O)c2nc(-c3cccnc3)n(C)c(=O)c2c1 (stereo not drawn) [Compound 139] | B (B denotes 20-fold≥value>5-fold) | 750 to 2000 | – | –
Cc1cc([C@@H](C)Nc2ccccc2C(=O)O)c2nc(-c3cnc(C)c(Cl)c3)n(C)c(=O)c2c1 [Compound 140] | B (B denotes 20-fold≥value>5-fold) | < 750 | – | –
Cc1cc([C@@H](C)Nc2ccccc2C(N)=O)c2nc(-c3cccnc3)n(C)c(=O)c2c1 [Compound 141] | B (B denotes 20-fold≥value>5-fold) | < 750 | – | –
Cc1cc([C@@H](C)Nc2ccccc2S(N)(=O)=O)c2nc(-c3cccnc3)n(C)c(=O)c2c1 [Compound 142] | A (A denotes >20-fold) | < 750 | – | –
Cc1cc([C@@H](C)Nc2ccccc2C(=O)O)c2nc(-c3ccnc(C#N)c3)n(C)c(=O)c2c1 [Compound 143] | A (A denotes >20-fold) | < 750 | – | –
Cc1cc([C@H](C)Nc2ccccc2C(=O)O)c2nc(N3Cc4ccccc4C3)nc(N3CC(O)C3)c2c1 [Compound 144] | B (B denotes 20-fold≥value>5-fold) | 750 to 2000 | – | –
Cc1cc([C@@H](C)Nc2ccccc2C(=O)O)c2nc(-c3ccnc(C4CC4)c3)n(C)c(=O)c2c1 [Compound 145] | B (B denotes 20-fold≥value>5-fold) | < 750 | – | –
Cc1cc([C@@H](C)Nc2ccccc2C(=O)O)c2nc(N3Cc4ccccc4C3)nc(OC3COC3)c2c1 [Compound 146] | A (A denotes >20-fold) | < 750 | – | –
CCOc1nc(N2Cc3ccccc3C2)nc2c([C@@H](C)Nc3ccccc3C(=O)O)cc(C)cc12 [Compound 147] | C (C denotes ≤5-fold) | ≥ 2000 | – | –
